Assay results from publication PMC10030565, “Ubiquitous occurrence of a dimethylsulfoniopropionate ABC transporter in abundant marine bacteria” (The ISME Journal, 2023).

What was measured:
RnDmpX Tyr200Ala mutant = assay: ITC titration of DMSP into RnDmpX Tyr200Ala mutant; format: binding, Roseovarius nubinhibens ISM; settings: Tyr200 mutated to Ala
Excerpt: (§1) The genes encoding SBPs from R. pomeroyi DSS-3 or R. nubinhibens ISM were amplified from the genome of R. pomeroyi DSS-3 or R. nubinhibens ISM by PCR using FastPfu DNA polymerase (TransGen Biotech, China). The dmpX homologue from P. sp. strain HTCC7211 (locus tag HTCC7211_00013840) was synthesized by the Beijing Genomics Institute (China). The related genes were then cloned into the NdeI/XhoI restriction sites of the pET-22b vector (Novagen, Germany) with a C-terminal His tag. Point mutations in DmpX were introduced using the PCR-based method and verified by DNA sequencing. The SBPs and corresponding mutant forms were produced in E. coli BL21 (DE3). The cells were cultured in the LB medium with 0.1 mg/ml ampicillin at 37 °C to an OD600 of 0.8–1.0 and then induced at 18 °C for 16 h with 0.5 mM isopropyl-β-D-thiogalactopyranoside (IPTG). After induction, cells were collected by centrifugation, resuspended in the lysis buffer (50 mM Tris-HCl, 100 mM NaCl, 0.5% glycerol, pH 8.0), and lysed by a pressure crusher. The proteins were first purified by affinity chromatography on a Ni^2+-NTA column (GE Healthcare, US), and then fractionated by gel filtration on a Superdex G75 column (GE healthcare, US).
(§2) Isothermal titration calorimetry (ITC) measurements were performed at 25 °C using a MicroCal iTC200 system (GE Healthcare, US) or MicroCal PEAQ-ITC system (Malvern Panalytical, UK). […]

RnDmpX Tyr200Phe mutant = assay: ITC titration of DMSP into RnDmpX Tyr200Phe mutant; format: binding, Roseovarius nubinhibens ISM; settings: Tyr200 mutated to Phe
Excerpt: as §1, §2

[1] = tested on: TmoX (encoded by SPO1548); parameters: method as in PMID 24550299, PMID 26283766; settings: cited from earlier work
SBP encoded by SPO1131 = assay: ITC titration of DMSP into recombinant SBP encoded by SPO1131; format: binding, Ruegeria pomeroyi DSS-3
Excerpt: as §1, §2

RnDmpX = RnDmpX (Roseovarius nubinhibens, UniProt A3SME7); assay: ITC titration of DMSP into recombinant RnDmpX; format: binding, Roseovarius nubinhibens ISM
Excerpt: as §1, §2

SBP encoded by SPOA0231 = assay: ITC titration of DMSP into recombinant SBP encoded by SPOA0231; format: binding, Ruegeria pomeroyi DSS-3
Excerpt: as §1, §2

[2] = biological target: DmpX (SBP encoded by SPO2441) (Ruegeria pomeroyi, UniProt Q5LQP7); assay: biochemical; format: binding, Ruegeria pomeroyi DSS-3; parameters: key to Dissociation constant (Kd): -: not detectable; settings: ITC; for binding affinity (in words): DMSP analogues compared to DMSP; for Dissociation constant (Kd): dash = not detectable
Excerpt: as §1
(§3) Isothermal titration calorimetry (ITC) measurements were performed at 25 °C using a MicroCal iTC200 system (GE Healthcare, US) or MicroCal PEAQ-ITC system (Malvern Panalytical, UK). The sample cell was loaded with 280 μl of protein sample (30–100 μM), and the reference cell contained distilled water. The syringe was filled with 40 μl of substrates (100 μM–1 mM). The proteins and substrates were kept in the same buffer containing 10 mM Tris-HCl (pH 8.0) and 100 mM NaCl.

DmpX^7211 = DmpX^7211 (Candidatus Pelagibacter sp. HTCC7211, UniProt B6BQI1); assay: ITC titration of substrates into recombinant DmpX^7211; format: binding; parameters: key: -: not detectable; settings: dash = not detectable
Excerpt: as §1, §3

R. pomeroyi DSS-3 WT = assay: Uptake of 14C-labeled DMSP, wild-type; format: cell-based, Ruegeria pomeroyi DSS-3; settings: 5 min, 30 °C, mean ± S.D. n = 3
Protocol: (§4) Triplicates of 1 µl ^14C:^12C-DMSP in 3 ml scintillation fluid (EcoLume Liquid Scintillation Cocktail, MP Biomedical, US) were measured on a liquid scintillation analyzer (Tri-Carb 2800TR, Perkin Elmer, UK) after overnight equilibration.
(§5) A single colony of R. pomeroyi DSS-3 WT, ΔdmpXWV mutant, or complemented ΔdmpXWV mutant was inoculated into 5 ml of marine broth medium (MB) and grown overnight at 30 °C under constant shaking (170 rpm). 1 ml preculture was inoculated into 50 ml MB and grown at 30 °C with shaking (130 rpm) until an OD540 of ~0.5-0.7 was reached, then used for DMSP uptake assays.
(§6) Due to a relatively low radiochemical and mid-millimolar range molar concentration of the ^14C:^12C-DMSP stock, we could not conduct uptake kinetics experiments. Instead, we used three DMSP concentrations (50, 150, and 300 µM) and added them to 3 ml of cultures in biological triplicates. Cells were incubated at 30 °C with shaking (130 rpm) for 5 min, filtered onto 0.2 µm pore size Supor filters (∅ 25 mm, Pall Corporation, US), and washed 3x with 1 ml MB medium. Wet filters were transferred to 6 ml scintillation vials and 3 ml EcoLume Liquid Scintillation Cocktail added. After equilibration overnight, samples were measured on a Tri-Carb 2800TR liquid scintillation analyzer. Cells fixed in 2% (vol/vol) freshly prepared paraformaldehyde solution for >15 min at 4 °C in the dark prior to radioisotope addition were used for background correction. Uptake rates were normalized by cell number.
(§7) Bacterial cell numbers used for normalization of uptake rates were determined by flow cytometry. […] 75 to 200-fold sample dilutions in sterile TE buffer (10 mM Tris-HCl, 1 mM EDTA, pH 8.0) were counted in analytical triplicates on a CytoFLEX flow cytometer (Beckman Coulter, UK) at a flow rate of 30 µl min^-1 for 60 sec. The instrument was equipped with a 50 mW 488 nm solid-state diode laser with standard filters and the discriminator set to 525 nm (green fluorescence) (Fig. S1).

[3] = tested on: R. pomeroyi DSS-3 complemented mutant ΔdmpXWV::Gm; assay: Uptake of 14C-labeled DMSP, complemented ΔdmpXWV::Gm mutant; format: cell-based, Ruegeria pomeroyi DSS-3; settings: for Uptake rate: complemented mutant ΔdmpXWV::Gm, 5 min, 30 °C, mean ± S.D. n = 3
Excerpt: To create the ΔdmpXWV knockout mutant regions of homology at the 5′ and 3′ ends of dmpXWV were amplified, alongside the gentamicin cassette from the p34s-Gm plasmid. Amplified DNA fragments were assembled into linearised pk18mobsacB using the HiFi assembly kit (New England Biolabs) according to the manufacturer’s instructions. To construct the complementation plasmid, dmpXWV was cloned into linearised pBBR1McS-km using the HiFi assembly kit. Plasmids were electroporated into competent Escherichia coli S17.1 λpir and conjugated into R. pomeroyi DSS-3. The knockout mutant was selected onto minimal media plates containing gentamicin (10 µg/ml), with resultant colonies screened for kanamycin resistance. Kanamycin-sensitive clones were PCR screened and products sequenced to confirm a double crossover. The complemented mutant strain was selected on MB plates containing gentamicin (10 µg/ml) and kanamycin (80 µg/ml), and colonies confirmed by PCR screening and sequencing.
as §4, §5
as §6, with “Cells fixed in 2% (vol/vol) freshly prepared paraformaldehyde solution for >15 min at 4 °C in the dark prior to radioisotope addition were used for background correction. Uptake rates were normalized by cell number.” left out
as §7

[4] = tested on: R. pomeroyi DSS-3 ΔdmpXWV::Gm mutant; assay: Uptake of 14C-labeled DMSP, ΔdmpXWV::Gm mutant; format: cell-based, Ruegeria pomeroyi DSS-3; settings: for Uptake rate: ΔdmpXWV::Gm, 5 min, 30 °C, mean ± S.D. n = 3
Protocol: Bacterial cell numbers used for normalization of uptake rates were determined by flow cytometry [41]. 1 ml culture was fixed with a final concentration of 0.5% (vol/vol) glutaraldehyde (Electron microscopy grade, BDH, AE) for 30 min at 4 °C, snap frozen in liquid nitrogen, and stored at –80 °C. Samples were thawed at 37 °C for 5 min, stained with SYBR gold (Invitrogen, US) (final concentration 10^-4 of commercial stock) for 10 min at 60 °C in the dark. 75 to 200-fold sample dilutions in sterile TE buffer (10 mM Tris-HCl, 1 mM EDTA, pH 8.0) were counted in analytical triplicates on a CytoFLEX flow cytometer (Beckman Coulter, UK) at a flow rate of 30 µl min^-1 for 60 sec. The instrument was equipped with a 50 mW 488 nm solid-state diode laser with standard filters and the discriminator set to 525 nm (green fluorescence) (Fig. S1).

DmpX (SBP encoded by SPO2441), sequence (Q5LQP7 entry or part of it): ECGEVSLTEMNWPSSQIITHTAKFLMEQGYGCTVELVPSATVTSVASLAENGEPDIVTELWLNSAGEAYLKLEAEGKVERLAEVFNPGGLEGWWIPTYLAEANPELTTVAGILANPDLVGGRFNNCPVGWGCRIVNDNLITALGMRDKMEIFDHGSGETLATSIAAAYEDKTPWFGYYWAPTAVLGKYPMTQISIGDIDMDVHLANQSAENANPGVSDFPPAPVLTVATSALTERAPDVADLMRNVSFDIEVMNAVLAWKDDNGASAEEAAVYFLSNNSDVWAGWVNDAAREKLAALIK
DmpX^7211, sequence (B6BQI1 27-337 limits assumed): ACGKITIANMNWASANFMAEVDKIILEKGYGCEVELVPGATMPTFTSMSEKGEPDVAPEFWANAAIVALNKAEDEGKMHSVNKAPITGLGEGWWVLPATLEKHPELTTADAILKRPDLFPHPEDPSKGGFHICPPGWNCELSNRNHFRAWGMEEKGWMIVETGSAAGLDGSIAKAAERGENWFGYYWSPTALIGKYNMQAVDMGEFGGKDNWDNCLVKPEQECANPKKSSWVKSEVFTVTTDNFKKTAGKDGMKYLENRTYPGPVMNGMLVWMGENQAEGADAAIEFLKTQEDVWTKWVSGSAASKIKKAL
RnDmpX, sequence (A3SME7 entry or part of it): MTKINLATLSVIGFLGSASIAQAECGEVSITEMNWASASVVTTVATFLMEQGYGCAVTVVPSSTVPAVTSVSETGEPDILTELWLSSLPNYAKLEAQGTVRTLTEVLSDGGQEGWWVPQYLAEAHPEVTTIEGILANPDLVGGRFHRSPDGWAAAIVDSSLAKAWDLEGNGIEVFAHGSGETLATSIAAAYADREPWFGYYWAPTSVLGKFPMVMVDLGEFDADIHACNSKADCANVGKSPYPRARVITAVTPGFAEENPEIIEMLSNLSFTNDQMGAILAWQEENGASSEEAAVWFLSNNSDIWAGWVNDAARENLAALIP

For `C[S+](C)CCC(=O)[O-]` [DMSP, Dimethylsulfoniopropionate], the “binding affinity for DMSP (in words)” value (RnDmpX Tyr200Ala mutant) is listed as “abolished”, the “binding affinity for DMSP (in words)” value (RnDmpX Tyr200Phe mutant) is listed as “abolished” and the “binding affinity to DMSP (in words)” value [1] is listed as “does not show any binding affinity”. For the same molecule, the “high binding affinity for DMSP (in words)” value (SBP encoded by SPO1131) was “did not”, the Kd (RnDmpX) was 474 nM and the “high binding affinity for DMSP (in words)” value (SBP encoded by SPOA0231) was “did not”. For the same molecule, the Kd ([2]; 25 °C, 10 mM Tris-HCl pH 8.0, 100 mM NaCl, SPO2441 (DmpX), read-out: Dissociation constant (Kd)) was 1100 nM.

With `C[N+](C)(C)CC(=O)O` [GBT, glycine betaine] the “Dissociation constant (Kd)” value (DmpX^7211) was “-”, the “binding affinity (in words)” value [2] was “little binding affinity” and the “Dissociation constant (Kd)” value ([2]; SPO2441 (DmpX)) was “-”.

For `C[N+](C)(C)[O-]` [TMAO, trimethylamine N-oxide], the “Dissociation constant (Kd)” value (DmpX^7211) was “-”, the “binding affinity (in words)” value [2] was “little binding affinity” and the “Dissociation constant (Kd)” value ([2]; SPO2441 (DmpX)) was “-”.

`C[S+](C)CCC(=O)[O-]` [^14C-DMSP, [1-^14C]DMSP] gave an Uptake rate (R. pomeroyi DSS-3 WT; DMSP concentration 50 µM) of 1.852 ± 0.100 fmol cell^-1 min^-1, an Uptake rate (R. pomeroyi DSS-3 WT; DMSP concentration 150 µM) of 2.267 ± 0.189 fmol cell^-1 min^-1 and an Uptake rate (R. pomeroyi DSS-3 WT; DMSP concentration 300 µM) of 3.095 ± 0.081 fmol cell^-1 min^-1. For the same molecule, the “restoration of import by complementation with dmpXWV (in words)” value ([3]; complemented mutant versus ΔdmpXWV::Gm) was “partly restore”, the Uptake rate ([3]; DMSP concentration 50 µM) was 0.946 ± 0.299 fmol cell^-1 min^-1 and the Uptake rate ([3]; DMSP concentration 150 µM) was 1.221 ± 0.159 fmol cell^-1 min^-1. The Uptake rate ([3]; DMSP concentration 300 µM) was 1.893 ± 0.084 fmol cell^-1 min^-1, the “reduction of uptake in the mutant in comparison to the wild-type” value ([4]; 50 μM DMSP, p < 0.001) was ~ 5 times and the “decrease of uptake in the mutant in comparison to the wild-type” value ([4]; 300 μM DMSP, p < 0.001) was ~ 3 times. It also gave an Uptake rate ([4]; DMSP concentration 50 µM) of 0.522 ± 0.040 fmol cell^-1 min^-1 and an Uptake rate ([4]; DMSP concentration 300 µM) of 1.344 ± 0.150 fmol cell^-1 min^-1.

For `C[N+](C)(C)CC(O)CC(=O)[O-]` (centres unmarked) [carnitine], the “Dissociation constant (Kd)” value (DmpX^7211) was “-”, the “binding affinity (in words)” value [2] was “little binding affinity” and the “Dissociation constant (Kd)” value ([2]; SPO2441 (DmpX)) was “-”.

For `C[N+](C)(C)CCO` [choline], the “binding affinity (in words)” value [2] was “little binding affinity” and the “Dissociation constant (Kd)” value ([2]; SPO2441 (DmpX)) was “-”.
